From patent US20080226605A1, “Methods and Compositions Facilitating Entry of Compounds Into Cells” (priority 2005, published 2008)

Tests used:
Assay type in all cases: cell-based, Human
DU145 cells [1] = assay: EGFP reporter uptake (pEGFP transfection, flow cytometry)
Description: (§1) Cell culture. Human prostate cancer cells DU145 were grown in RPMI 1640 medium, supplemented with 10% heat-inactivated fetal bovine serum (Life Technologies) under standard conditions (Carbone et al., Nucleic Acids Res. 2003, 31, 833-843; Carbone et al., Nucleic Acids Res 2004, 32, 4358-4367).
EGFP reporter uptake. DU145 cells were plated in 6-well plates at a density of 1.5×10^5 cells/well, grown overnight and then transfected. Trasfection mixtures contained 4 μg of pEGFP reporter plasmid with or without addition of neomycin and DOTAP at a 1:5 ratio as described above. Cells were incubated with the transfection complexes for 5 hours, then the medium was removed and replaced with fresh medium. After 24 hours, cells were harvested […], recovered by centrifugation, washed once with PBS, and then analyzed using a FACSCalibur (Becton Dickinson). Data were analyzed using Cell Quest software.
The effects of neomycin on transfection efficiency were further examined using another reporter system, a plasmid expressing green fluorescent protein, the pEGFP reporter vector. DU145 cells were transfected with the pEGFP plasmid in the presence of DOTAP, neomycin or both DOTAP and neomycin. After 24 hours, cells were collected and analyzed for EGFP expression by flow cytometry to examine both fluorescence intensity and percentage of EGFP-positive cells. […]

DU145 cells [2] = assay: Cellular uptake of fluorescein-labeled oligonucleotide (F-TFO), flow cytometry; conditions: F-TFO 125 nM; for percentage of fluorescein-positive cells: neomycin 5 μM where present
Description: as §1
Oligonucleotides and other reagents. The fluorescein-conjugated phosphorothioate oligonucleotide (F-TFO) was purchased from Sigma. The oligonucleotide was purified by high-performance liquid chromatography (HPLC). The sequence of the F-TFO, which is identical to the Ets2-TFO, has been published previously (Carbone et al., Nucleic Acids Res. 2003, 31, 833-843). Stock solutions of oligonucleotides were made in sterile water. Oligonucleotide concentrations were determined with a spectrophotometer using appropriate nucleotide extinction coefficients. DOTAP (1,2-dioleoyl-3-trimethyl-ammonium-propane) was purchased from Roche (Indianapolis, Ind.). Neomycin was purchased from Sigma, and used as described previously (Arya et al., J. Am. Chem. Soc. 2003, 125, 3733-3744).
Cellular uptake of oligonucleotides. Uptake of F-TFO and dauno-GT11 was examined 24 hours after transfection of DU145 cells (1.5×10^5 cells/well in 6-well plates) with DOTAP with or without the addition of neomycin as described above. Concentration of F-TFO was 125 nM, corresponding to about 1 μg of DNA/well. After 24 hours, cells were washed and analyzed using a FACSCalibur as described above.
Neomycin positively affected transfection efficiency of plasmid DNA mediated by DOTAP. This effect could be mediated by an increase in intracellular uptake and/or by an enhanced release of DNA from lipid complex into the cytoplasm. […] For the tests shown in FIG. 3, a phosporothioate oligonucleotide directed to the Ets2 gene promoter (Ets2-TFO) was conjugated at the 5′ end with fluorescein (Carbone et al., Nucleic Acids Res. 2003, 31, 833). Cells were transfected with the fluorescein labeled TFO (F-TFO) for 6 hours and then incubated for 24 hours in fresh medium before the analysis by flow cytometry. At the concentration used in the test, only about 7% of cells were fluorescein-positive when transfected with DOTAP alone. The percentage of fluorescein-positive cells increased to about 50% when the oligonucleotide was delivered using the combination of DOTAP and neomycin. Therefore, neomycin enhanced uptake of the F-TFO by approximately 7-fold.

DU145 cells [3] = assay: Luciferase reporter assay (transfection of reporter plasmids); conditions: neomycin added to the medium after the transfection
Description: as §1
Reporter plasmids. The reporter plasmid pGL3-Ets2 containing the firefly luciferase gene under control of Ets2 promoter has been previously described (Carbone et al., Nucleic Acids Res 2004, 32, 4358-4367). The pRL-SV40 reporter plasmid was purchased from Promega. The pEGFP plasmid was obtained from Clontech.
Luciferase reporter assay. DU145 cells were plated in 48-well plates at a density of 1.5×10^4 cells/well. After 24 hours, cells were transfected with DOTAP-DNA complexes as previously described (Carbone et al., Nucleic Acids Res. 2003, 31, 833-843). […] Mixtures of DNA-DOTAP and DNA-DOTAP-neomycin were allowed to sit at room temperature for 15 minutes for complex formation. […] Luciferase activity was measured with the Luciferase assay system from Promega.
The effects of neomycin in combination with the cationic lipid preparation DOTAP on the uptake of luciferase reporter plasmids was determined. […] The efficiency of transfection as assessed by the luciferase assay increased as the concentration of neomycin increased from 0.5 to 5 μM (FIG. 1A). […]

[4] = flow cytometry 24 hours after transfection

| Compound | efficiency of DNA uptake (DU145 cells [1]; pEGFP plasmid, neomycin alone (5 μM), without DOTAP) | percentage of fluorescein-positive cells (DU145 cells [2]; [4]) | oligonucleotide uptake (DU145 cells [2]; neomycin alone (5 μM), without DOTAP) | effect on luciferase reporter activity (DU145 cells [3]) | mean fluorescent intensity (EGFP) (DU145 cells [1]; pEGFP plasmid 4 μg, flow cytometry after 24 hours) | mean fluorescent intensity (F-TFO) (DU145 cells [2]; [4]) |
| --- | --- | --- | --- | --- | --- | --- |
| neomycin | marginally affected | 2.4% | did not affect | No effect |  |  |
| CCCCCCCC/C=C\CCCCCCCC(=O)OCC(C[N+](C)(C)C)OC(=O)CCCCCCC/C=C\CCCCCCCC (stereo not shown) [DOTAP, 1,2-dioleoyl-3-trimethyl-ammonium-propane] |  | about 7% |  |  | 27.8 | 19.4 |
